Experimental data as given in ChEMBL document CHEMBL1144812, “Small molecules with structural similarities to siderophores as novel antimicrobials against Mycobacterium tuberculosis and Yersinia pestis” (Bioorg Med Chem Lett, 2008).
pIC50: −log10 of the molar value.

Experiments:
[1] = Cytotoxicity against human HeLa cells after 24 hrs; assay type: cell-based; conditions: read-out: CD50
[2] = biological target: T1, AMP-binding enzyme family protein (Yersinia pestis, UniProt Q56950); test: Inhibition of Yersinia pestis YbtE assessed as incorporation of [3H]salicyl group to HMWP2 protein
T1 sequence (Q56950 whole entry): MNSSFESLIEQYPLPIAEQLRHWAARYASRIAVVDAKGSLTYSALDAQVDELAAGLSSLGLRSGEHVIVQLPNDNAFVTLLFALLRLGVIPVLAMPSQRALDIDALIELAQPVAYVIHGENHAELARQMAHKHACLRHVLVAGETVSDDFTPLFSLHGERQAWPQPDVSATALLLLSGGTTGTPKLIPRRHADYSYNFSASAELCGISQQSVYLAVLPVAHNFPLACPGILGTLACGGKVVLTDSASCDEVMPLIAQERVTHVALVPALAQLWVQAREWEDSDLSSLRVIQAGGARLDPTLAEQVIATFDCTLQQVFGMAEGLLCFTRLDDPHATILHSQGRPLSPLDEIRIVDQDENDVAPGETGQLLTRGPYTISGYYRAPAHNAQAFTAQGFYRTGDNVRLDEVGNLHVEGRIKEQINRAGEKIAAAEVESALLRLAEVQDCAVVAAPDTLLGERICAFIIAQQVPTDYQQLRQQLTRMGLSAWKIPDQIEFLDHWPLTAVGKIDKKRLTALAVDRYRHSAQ

[3] = test system: Yersinia pestis; test: Antimicrobial activity against Yersinia pestis KIM6-2082.1+ in presence of iron limiting PMH-D medium; assay type: functional, organism-based
[4] = test system: Mycobacterium tuberculosis; test: Antimycobacterial activity against Mycobacterium tuberculosis H37Rv in presence of iron rich GAST-D medium; assay type: functional, organism-based
[5] = test system: Yersinia pestis; test: Antimicrobial activity against Yersinia pestis KIM6-2082.1+ in presence of iron rich PMH-D medium; assay type: functional, organism-based
[6] = test system: Mycobacterium tuberculosis; test: Antimycobacterial activity against Mycobacterium tuberculosis H37Rv in presence of iron deficient GAST-D medium; assay type: functional, organism-based
[7] = test system: Yersinia pestis; test: Ratio of MIC90 for Yersinia pestis KIM6-2082.1+ in iron rich PMH-D medium to MIC90 for Yersinia pestis KIM6-2082.1+ in presence of iron limiting PMH-D medium; assay type: functional
[8] = test system: Mycobacterium tuberculosis; test: Ratio of MIC90 for Mycobacterium tuberculosis H37Rv in iron rich GAST-D medium to MIC90 for Mycobacterium tuberculosis H37Rv in presence of iron limiting GAST-D medium; assay type: functional

SMILES	CC50 at 24 h [1] [µM]	pIC50 [2]	pIC50 [3]	MIC90 [3] [µM]	pIC50 [4]	MIC90 [4] [µM]	pIC50 [5]	MIC90 [5] [µM]	pIC50 [6]	MIC90 [6] [µM]	Ratio [7]	Ratio [8]
Cc1ccc(NC(=S)N2N=C(c3ccccc3O)C[C@H]2c2ccccc2O)cc1	11	6.30	6.10	2	3.68	> 250	< 5.05	> 9	4.57	63	>5	>4
Oc1ccccc1C1=NN(C(=S)Nc2ccccc2)[C@H](c2ccco2)C1	3	6.52	6.00	2	4.14	208	< 5.05	> 9	4.14	250	>5	1
NC(=S)N1N=C(c2ccccc2O)C[C@H]1c1ccc(O)cc1	398	6.30	< 4.42	> 38	3.90	333	< 4.42	> 38	5.10	21	–	16
Oc1ccc(C2=NN(C(=S)Nc3ccccc3)[C@H](c3ccc(O)cc3)C2)cc1	248	< 4.90	< 4.12	> 75	3.98	250	< 4.12	> 75	4.08	125	–	2
COc1cc([C@@H]2CC(c3ccccc3O)=NN2C(=S)Nc2ccccc2C)ccc1O	15	6.00	5.52	9	4.02	> 500	< 4.72	> 19	4.00	417	>2	>1
Cc1ccccc1NC(=S)N1N=C(c2ccccc2O)C[C@H]1c1ccc(O)cc1	21	6.15	5.52	5	4.08	417	< 4.72	> 19	4.54	63	>4	7
COc1ccccc1NC(=S)N1N=C(c2ccc(O)cc2O)C[C@H]1c1ccc(O)cc1	23	6.22	6.15	3	3.81	250	< 3.82	> 150	4.10	125	>50	2
Oc1ccc([C@@H]2CC(c3ccccc3O)=NN2C(=S)Nc2ccccc2)cc1	42	6.40	< 4.72	> 19	5.40	12	< 4.72	> 19	5.52	13	–	1
COc1cc([C@@H]2CC(c3ccc(O)cc3O)=NN2C(=S)Nc2ccccc2)ccc1O	30	6.15	6.22	2	3.48	> 500	< 3.82	> 150	4.08	125	>75	>4
COc1ccc(NC(=S)N2N=C(c3ccccc3O)C[C@H]2c2ccccc2O)cc1	1	6.70	6.00	3	3.78	> 250	< 5.70	> 2	4.55	63	>0.7	>4
Cc1ccccc1NC(=S)N1N=C(c2ccccc2O)C[C@H]1c1ccccc1O	17	6.00	5.70	5	4.38	> 500	< 4.72	> 19	4.55	104	>4	>5
COc1ccc(NC(=S)N2N=C(c3ccc(O)cc3O)C[C@H]2c2ccc(O)cc2)cc1	62	< 4.90	6.40	5	3.60	> 500	< 3.82	> 150	4.20	167	>30	>3
COc1cc([C@@H]2CC(c3ccc(O)cc3O)=NN2C(=S)Nc2ccccc2OC)ccc1O	26	6.70	4.77	> 38	4.26	125	< 4.42	> 38	4.29	125	–	1
Oc1ccccc1C1=NN(C(=S)Nc2ccccc2)[C@H](c2ccccc2O)C1	3	6.22	6.15	2	4.19	100	< 4.72	> 19	4.54	83	>10	1
